Results taken from ChEMBL document CHEMBL1134483, “Quinazolin-4-one alpha-amino-3-hydroxy-5-methyl-4-isoxazolepropionic acid (AMPA) receptor antagonists: structure-activity relationship of the C-2 side chain tether” (J Med Chem, 2001).

Target: Glutamate receptor ionotropic, AMPA (Rattus norvegicus, UniProt P19490+P19491+P19492+P19493)
Assay: Inhibition of Ca 2+ Influx in cultured rat cerebellar granule cells, mediated by ionotropic glutamate receptor AMPA
Assay type: functional

| SMILES | IC50 |
| --- | --- |
| N#Cc1ccccc1NCc1nc2ccc(F)cc2c(=O)n1-c1ccccc1Cl | 42 nM |
| O=c1c2cc(F)ccc2nc(CC(O)c2ccccc2F)n1-c1ccccc1Cl (stereo in doubt; 3a) | 240 nM |
| O=c1c2cc(F)ccc2nc(/C(O)=C/c2ccccc2F)n1-c1ccccc1Cl | > 30000 nM |
| O=c1c2cc(F)ccc2nc(CNCc2ccccc2F)n1-c1ccccc1Cl | > 300 nM |
| O=c1c2cc(F)ccc2nc(COc2ccccc2F)n1-c1ccccc1Cl | > 10000 nM |
| CN(Cc1nc2ccc(F)cc2c(=O)n1-c1ccccc1Cl)c1ccccc1F | 2000 nM |
| CC(=O)N(Cc1nc2ccc(F)cc2c(=O)n1-c1ccccc1Cl)c1ccccc1F | > 3000 nM |
| Cc1cccc(NCc2nc3ccc(F)cc3c(=O)n2-c2ccccc2Cl)c1 | 213 nM |
| O=c1c2cc(F)ccc2nc(CC(O)c2ccccc2F)n1-c1ccccc1Cl (stereo in doubt; 3b) | > 3000 nM |
| O=c1c2cc(F)ccc2nc(CNc2ccccc2F)n1-c1ccccc1Cl | 13 nM |
